≈ marks a conversion by molar mass, not a printed value.
Assays:
Experiment in all cases: in vitro antibacterial evaluation, MIC by broth dilution
Assay type in all cases: cell-based
Enterococcus sp. = conditions: broth dilution, 18 hours at 35° C.; for MIC Enterococcus faecalis (ATCC 29212): strain ATCC 29212; for MIC Enterococcus faecalis (GC 2242): strain GC 2242; for MIC Enterococcus faecium (GC 2243): strain GC 2243; for MIC Enterococcus faecalis (GC 2691): strain GC 2691; for MIC Enterococcus faecalis (GC 3059): strain GC 3059; for MIC Enterococcus faecalis (GC 4552): strain GC 4552; for MIC Enterococcus faecalis (GC 4553): strain GC 4553; for MIC Enterococcus faecalis (GC 4554): strain GC 4554; for MIC Enterococcus faecium (GC 4556): strain GC 4556; for MIC Enterococcus faecium (GC 4557): strain GC 4557; for MIC Enterococcus avium (GC 4558): strain GC 4558; for MIC Enterococcus faecalis (GC 6189): strain GC 6189
Procedure, shortened: (§1)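 Broth dilution per NCCLS standard M7-A2 in Muller-Hinton II […], with an inoculum of 5×10^5 CFU/mL and antibiotic spanning 64-0.06 μg/mL. The MIC is the lowest concentration that inhibits growth of the organism.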

Escherichia coli = test system: Escherichia coli
Procedure, shortened: as §1

Staphylococcus sp. = conditions: broth dilution, 18 hours at 35° C.; for MIC Staphylococcus aureus (GC 1131): strain GC 1131
Procedure, shortened: as §1

Streptococcus sp. = conditions: broth dilution, 18 hours at 35° C.; for MIC Streptococcus pneumoniae (ATCC 6301): strain ATCC 6301; for MIC Streptococcus pneumoniae (GC 1894): strain GC 1894; for MIC Streptococcus pyogenes (GC 4563): strain GC 4563; for MIC Streptococcus agalactiae (GC 4564): strain GC 4564; for MIC Streptococcus pneumoniae (GC 4565): strain GC 4565
Procedure, shortened: as §1

Q: `CC(C)=CCOc1cccc(C2OCC3OC(OC4C(CO)OC(Oc5ccc(CC6NC(=O)C(C(C)c7ccccc7)NC(=O)CNC(=O)C(CO)NC(=O)C(C(O)C7CNC(=N)N7C7OC(CO)C(O)C(O)C7O)NC(=O)C(C(O)C7CNC(=N)N7)NC6=O)cc5)C(O)C4O)C(O)C(O)C3O2)c1` (stereo not drawn) [Example 165] was tested. Which “MIC Enterococcus faecalis (ATCC 29212)” value (Enterococcus sp.; inoculum 5×10^5 CFU/mL) did it give?
A: 16 µg/mL (≈ 10.9 µM)

Q: And the “MIC Enterococcus faecalis (GC 2242)” value (Enterococcus sp.; inoculum 5×10^5 CFU/mL)?
A: 16 µg/mL (≈ 10.9 µM)

Q: What about the “MIC Enterococcus faecium (GC 2243)” value (Enterococcus sp.; inoculum 5×10^5 CFU/mL) of the same compound?
A: 16 µg/mL (≈ 10.9 µM)

Q: What about the “MIC Enterococcus faecalis (GC 2691)” value (Enterococcus sp.; inoculum 5×10^5 CFU/mL) of the same compound?
A: 16 µg/mL (≈ 10.9 µM)

Q: What about the “MIC Enterococcus faecalis (GC 3059)” value (Enterococcus sp.; inoculum 5×10^5 CFU/mL) of the same compound?
A: 16 µg/mL (≈ 10.9 µM)

Q: And the “MIC Enterococcus faecalis (GC 4552)” value (Enterococcus sp.; inoculum 5×10^5 CFU/mL)?
A: 16 µg/mL (≈ 10.9 µM)

Q: What about the “MIC Enterococcus faecalis (GC 4553)” value (Enterococcus sp.; inoculum 5×10^5 CFU/mL) of the same compound?
A: 16 µg/mL (≈ 10.9 µM)

Q: What about the “MIC Enterococcus faecalis (GC 4554)” value (Enterococcus sp.; inoculum 5×10^5 CFU/mL) of the same compound?
A: 32 µg/mL (≈ 21.8 µM)

Q: What about the “MIC Enterococcus faecium (GC 4556)” value (Enterococcus sp.; inoculum 5×10^5 CFU/mL) of the same compound?
A: 16 µg/mL (≈ 10.9 µM)

Q: What about the “MIC Enterococcus faecium (GC 4557)” value (Enterococcus sp.; inoculum 5×10^5 CFU/mL) of the same compound?
A: 16 µg/mL (≈ 10.9 µM)

Q: What about the “MIC Enterococcus avium (GC 4558)” value (Enterococcus sp.; inoculum 5×10^5 CFU/mL) of the same compound?
A: 16 µg/mL (≈ 10.9 µM)

Q: What about the “MIC Enterococcus faecalis (GC 6189)” value (Enterococcus sp.; inoculum 5×10^5 CFU/mL) of the same compound?
A: 16 µg/mL (≈ 10.9 µM)

Q: And the “MIC Enterococcus faecalis (ATCC 29212)” value (Enterococcus sp.)?
A: 16 µg/mL (≈ 10.9 µM)

Q: What about the “MIC Enterococcus faecalis (GC 2242)” value (Enterococcus sp.) of the same compound?
A: 16 µg/mL (≈ 10.9 µM)

Q: And the “MIC Enterococcus faecium (GC 2243)” value (Enterococcus sp.)?
A: 16 µg/mL (≈ 10.9 µM)

Q: What about the “MIC Enterococcus faecalis (GC 2691)” value (Enterococcus sp.) of the same compound?
A: 16 µg/mL (≈ 10.9 µM)

Q: And the “MIC Enterococcus faecalis (GC 3059)” value (Enterococcus sp.)?
A: 16 µg/mL (≈ 10.9 µM)

Q: What about the “MIC Enterococcus faecalis (GC 4552)” value (Enterococcus sp.) of the same compound?
A: 16 µg/mL (≈ 10.9 µM)

Q: What about the “MIC Enterococcus faecalis (GC 4553)” value (Enterococcus sp.) of the same compound?
A: 16 µg/mL (≈ 10.9 µM)

Q: What about the “MIC Enterococcus faecalis (GC 4554)” value (Enterococcus sp.) of the same compound?
A: 32 µg/mL (≈ 21.8 µM)

Q: And the “MIC Enterococcus faecium (GC 4556)” value (Enterococcus sp.)?
A: 16 µg/mL (≈ 10.9 µM)

Q: What about the “MIC Enterococcus faecium (GC 4557)” value (Enterococcus sp.) of the same compound?
A: 16 µg/mL (≈ 10.9 µM)

Q: And the “MIC Enterococcus avium (GC 4558)” value (Enterococcus sp.)?
A: 16 µg/mL (≈ 10.9 µM)

Q: What about the “MIC Enterococcus faecalis (GC 6189)” value (Enterococcus sp.) of the same compound?
A: 16 µg/mL (≈ 10.9 µM)

Q: What about the “MIC Escherichia coli (ATCC 25922)” value (Escherichia coli; strain ATCC 25922, 18 hours at 35° C.) of the same compound?
A: >64 µg/mL

Q: What about the “MIC Escherichia coli (GC 4559)” value (Escherichia coli; strain GC 4559, 18 hours at 35° C.) of the same compound?
A: >64 µg/mL

Q: What about the “MIC Escherichia coli (GC 4560)” value (Escherichia coli; strain GC 4560, 18 hours at 35° C.) of the same compound?
A: 16 µg/mL (≈ 10.9 µM)

Q: And the “MIC Staphylococcus aureus (GC 1131)” value (Staphylococcus sp.; inoculum 5×10^5 CFU/mL)?
A: 16 µg/mL (≈ 10.9 µM)

Q: What about the “MIC Staphylococcus aureus (ATCC 29213)” value (Staphylococcus sp.; strain ATCC 29213) of the same compound?
A: 16 µg/mL (≈ 10.9 µM)

Q: What about the “MIC Staphylococcus aureus (GC 1131)” value (Staphylococcus sp.) of the same compound?
A: 16 µg/mL (≈ 10.9 µM)

Q: What about the “MIC Staphylococcus aureus (GC 3051)” value (Staphylococcus sp.; strain GC 3051) of the same compound?
A: 32 µg/mL (≈ 21.8 µM)

Q: And the “MIC Staphylococcus aureus (GC 3053)” value (Staphylococcus sp.; strain GC 3053)?
A: 16 µg/mL (≈ 10.9 µM)

Q: What about the “MIC Staphylococcus aureus (GC 4541)” value (Staphylococcus sp.; strain GC 4541) of the same compound?
A: 16 µg/mL (≈ 10.9 µM)

Q: And the “MIC Staphylococcus aureus (GC 4542)” value (Staphylococcus sp.; strain GC 4542)?
A: 16 µg/mL (≈ 10.9 µM)

Q: And the “MIC Staphylococcus aureus-SMITH (GC 4543)” value (Staphylococcus sp.; strain GC 4543)?
A: 16 µg/mL (≈ 10.9 µM)

Q: What about the “MIC Staphylococcus aureus (GC 4544)” value (Staphylococcus sp.; strain GC 4544) of the same compound?
A: 16 µg/mL (≈ 10.9 µM)

Q: What about the “MIC Staphylococcus aureus (GC 4545)” value (Staphylococcus sp.; strain GC 4545) of the same compound?
A: 16 µg/mL (≈ 10.9 µM)

Q: What about the “MIC Staphylococcus haemolyticus (GC 4546)” value (Staphylococcus sp.; strain GC 4546) of the same compound?
A: 16 µg/mL (≈ 10.9 µM)

Q: And the “MIC Coagulase Negative Staphylococcus (GC 4547)” value (Staphylococcus sp.; strain GC 4547)?
A: 16 µg/mL (≈ 10.9 µM)

Q: And the “MIC Coagulase Negative Staphylococcus (GC 4548)” value (Staphylococcus sp.; strain GC 4548)?
A: 8 µg/mL (≈ 5.45 µM)

Q: What about the “MIC Coagulase Negative Staphylococcus (GC 4549)” value (Staphylococcus sp.; strain GC 4549) of the same compound?
A: 8 µg/mL (≈ 5.45 µM)

Q: And the “MIC Coagulase Negative Staphylococcus (GC 4551)” value (Staphylococcus sp.; strain GC 4551)?
A: 16 µg/mL (≈ 10.9 µM)

Q: What about the “MIC Coagulase Negative Staphylococcus (GC 6257)” value (Staphylococcus sp.; strain GC 6257) of the same compound?
A: 8 µg/mL (≈ 5.45 µM)

Q: What about the “MIC Staphylococcus aureus-SMITH (GC 4543)” value (Staphylococcus sp.; strain SMITH GC 4543) of the same compound?
A: 16 µg/mL (≈ 10.9 µM)

Q: And the “MIC Streptococcus pneumoniae (ATCC 6301)” value (Streptococcus sp.; inoculum 5×10^5 CFU/mL)?
A: 0.12 µg/mL (≈ 0.0818 µM)

Q: And the “MIC Streptococcus pneumoniae (GC 1894)” value (Streptococcus sp.; inoculum 5×10^5 CFU/mL)?
A: <0.06 µg/mL

Q: What about the “MIC Streptococcus pyogenes (GC 4563)” value (Streptococcus sp.; inoculum 5×10^5 CFU/mL) of the same compound?
A: 0.12 µg/mL (≈ 0.0818 µM)

Q: What about the “MIC Streptococcus agalactiae (GC 4564)” value (Streptococcus sp.; inoculum 5×10^5 CFU/mL) of the same compound?
A: 1 µg/mL (≈ 0.681 µM)

Q: And the “MIC Streptococcus pneumoniae (GC 4565)” value (Streptococcus sp.; inoculum 5×10^5 CFU/mL)?
A: 0.12 µg/mL (≈ 0.0818 µM)

Q: And the “MIC Streptococcus pneumoniae (ATCC 6301)” value (Streptococcus sp.)?
A: 0.12 µg/mL (≈ 0.0818 µM)

Q: What about the “MIC Streptococcus pneumoniae (GC 1894)” value (Streptococcus sp.) of the same compound?
A: <0.06 µg/mL

Q: What about the “MIC Streptococcus pyogenes (GC 4563)” value (Streptococcus sp.) of the same compound?
A: 0.12 µg/mL (≈ 0.0818 µM)

Q: What about the “MIC Streptococcus agalactiae (GC 4564)” value (Streptococcus sp.) of the same compound?
A: 1 µg/mL (≈ 0.681 µM)

Q: And the “MIC Streptococcus pneumoniae (GC 4565)” value (Streptococcus sp.)?
A: 0.12 µg/mL (≈ 0.0818 µM)

From patent US6914045B2, “Glycopeptide antibiotics” (Wyeth Holdings Corporation, priority 2001, dated 2005)
